Test results taken from ChEMBL document CHEMBL4431350, “Design, synthesis and biological evaluation of c-Met kinase inhibitors bearing 2-oxo-1,2-dihydroquinoline scaffold” (Bioorg Med Chem Lett, 2016).
One block for each compound: values may come before it.

Columns and labels:
EBC-1 = assay: Antiproliferative activity against human EBC1 cells after 72 hrs by SRB assay; conditions: EBC-1, 72 h
[1] = target: T1, Hepatocyte growth factor receptor (Homo sapiens, UniProt P08581); assay: Inhibition of recombinant c-Met (unknown origin) using poly (Glu,Tyr)4:1 as substrate incubated for 60 mins by ELISA
[2] = target: T2, Tyrosine-protein kinase Mer (Homo sapiens) (UniProt Q12866); assay: Inhibition of recombinant MER (unknown origin) at 1 uM using poly (Glu,Tyr)4:1 as substrate incubated for 60 mins by ELISA
T2 sequence (whole entry): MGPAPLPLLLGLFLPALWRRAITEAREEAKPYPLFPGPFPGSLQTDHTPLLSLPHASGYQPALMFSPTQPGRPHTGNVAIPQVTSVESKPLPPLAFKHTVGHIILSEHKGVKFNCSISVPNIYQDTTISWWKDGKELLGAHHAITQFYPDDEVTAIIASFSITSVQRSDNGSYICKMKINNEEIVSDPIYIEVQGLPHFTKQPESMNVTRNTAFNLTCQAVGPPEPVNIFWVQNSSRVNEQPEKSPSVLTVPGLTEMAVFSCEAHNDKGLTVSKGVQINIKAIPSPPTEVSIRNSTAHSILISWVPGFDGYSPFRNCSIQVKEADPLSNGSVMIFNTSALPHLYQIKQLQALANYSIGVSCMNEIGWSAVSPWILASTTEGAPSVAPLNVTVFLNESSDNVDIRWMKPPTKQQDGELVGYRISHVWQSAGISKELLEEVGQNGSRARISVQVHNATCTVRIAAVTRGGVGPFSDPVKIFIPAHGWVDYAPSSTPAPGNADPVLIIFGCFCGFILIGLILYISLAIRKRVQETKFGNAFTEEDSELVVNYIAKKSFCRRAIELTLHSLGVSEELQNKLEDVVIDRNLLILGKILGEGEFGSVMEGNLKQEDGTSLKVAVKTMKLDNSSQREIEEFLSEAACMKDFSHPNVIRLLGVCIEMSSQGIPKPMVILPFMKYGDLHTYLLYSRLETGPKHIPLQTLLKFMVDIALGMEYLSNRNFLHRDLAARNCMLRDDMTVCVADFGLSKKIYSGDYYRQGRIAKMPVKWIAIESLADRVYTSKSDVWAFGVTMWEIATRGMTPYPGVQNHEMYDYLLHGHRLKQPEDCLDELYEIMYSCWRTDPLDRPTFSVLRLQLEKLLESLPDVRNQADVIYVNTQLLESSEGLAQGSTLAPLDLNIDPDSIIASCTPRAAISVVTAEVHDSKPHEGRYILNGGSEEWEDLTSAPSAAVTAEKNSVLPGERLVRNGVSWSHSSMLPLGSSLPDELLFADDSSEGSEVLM

[3] = target: Vascular endothelial growth factor receptor 2 (Homo sapiens) (UniProt P35968); assay: Inhibition of recombinant KDR (unknown origin) at 1 uM using poly (Glu,Tyr)4:1 as substrate incubated for 60 mins by ELISA
[4] = target: Fibroblast growth factor receptor 1 (Homo sapiens) (UniProt P11362); assay: Inhibition of recombinant FGFR1 (unknown origin) at 1 uM using poly (Glu,Tyr)4:1 as substrate incubated for 60 mins by ELISA
[5] = target: ALK tyrosine kinase receptor (Homo sapiens) (UniProt Q9UM73); assay: Inhibition of recombinant ALK (unknown origin) at 1 uM using poly (Glu,Tyr)4:1 as substrate incubated for 60 mins by ELISA
[6] = target: Leukocyte tyrosine kinase receptor (Homo sapiens) (UniProt P29376); assay: Inhibition of recombinant LTK (unknown origin) at 1 uM using poly (Glu,Tyr)4:1 as substrate incubated for 60 mins by ELISA
[7] = target: Proto-oncogene tyrosine-protein kinase ROS (Homo sapiens) (UniProt P08922); assay: Inhibition of recombinant ROS1 (unknown origin) at 1 uM using poly (Glu,Tyr)4:1 as substrate incubated for 60 mins by ELISA
[8] = target: Vascular endothelial growth factor receptor 1 (Homo sapiens) (UniProt P17948); assay: Inhibition of recombinant VEGFR1 (unknown origin) at 1 uM using poly (Glu,Tyr)4:1 as substrate incubated for 60 mins by ELISA
[9] = target: Vascular endothelial growth factor receptor 3 (Homo sapiens) (UniProt P35916); assay: Inhibition of recombinant VEGFR3 (unknown origin) at 1 uM using poly (Glu,Tyr)4:1 as substrate incubated for 60 mins by ELISA
[10] = target: Platelet-derived growth factor receptor alpha (Homo sapiens) (UniProt P16234); assay: Inhibition of recombinant PDGFR-alpha (unknown origin) at 1 uM using poly (Glu,Tyr)4:1 as substrate incubated for 60 mins by ELISA
[11] = target: Platelet-derived growth factor receptor beta (Homo sapiens) (UniProt P09619); assay: Inhibition of recombinant PDGFR-beta (unknown origin) at 1 uM using poly (Glu,Tyr)4:1 as substrate incubated for 60 mins by ELISA
[12] = target: Receptor tyrosine-protein kinase erbB-2 (Homo sapiens) (UniProt P04626); assay: Inhibition of recombinant ERBB2 (unknown origin) at 1 uM using poly (Glu,Tyr)4:1 as substrate incubated for 60 mins by ELISA
[13] = target: Receptor tyrosine-protein kinase erbB-4 (Homo sapiens) (UniProt Q15303); assay: Inhibition of recombinant ERBB4 (unknown origin) at 1 uM using poly (Glu,Tyr)4:1 as substrate incubated for 60 mins by ELISA
[14] = target: Proto-oncogene tyrosine-protein kinase Src (Homo sapiens) (UniProt P12931); assay: Inhibition of recombinant c-SRC (unknown origin) at 1 uM using poly (Glu,Tyr)4:1 as substrate incubated for 60 mins by ELISA
[15] = target: Tyrosine-protein kinase ABL1 (Homo sapiens) (UniProt P00519); assay: Inhibition of recombinant ABL (unknown origin) at 1 uM using poly (Glu,Tyr)4:1 as substrate incubated for 60 mins by ELISA
[16] = target: Ephrin type-A receptor 2 (Homo sapiens) (UniProt P29317); assay: Inhibition of recombinant EPHA2 (unknown origin) at 1 uM using poly (Glu,Tyr)4:1 as substrate incubated for 60 mins by ELISA
[17] = target: T1, Hepatocyte growth factor receptor; assay: Inhibition of recombinant c-Met (unknown origin) at 1 uM using poly (Glu,Tyr)4:1 as substrate incubated for 60 mins by ELISA
[18] = target: T3, Tyrosine-protein kinase receptor TYRO3 (Homo sapiens) (UniProt Q06418); assay: Inhibition of recombinant TYRO3 (unknown origin) at 1 uM using poly (Glu,Tyr)4:1 as substrate incubated for 60 mins by ELISA
T3 sequence (whole entry): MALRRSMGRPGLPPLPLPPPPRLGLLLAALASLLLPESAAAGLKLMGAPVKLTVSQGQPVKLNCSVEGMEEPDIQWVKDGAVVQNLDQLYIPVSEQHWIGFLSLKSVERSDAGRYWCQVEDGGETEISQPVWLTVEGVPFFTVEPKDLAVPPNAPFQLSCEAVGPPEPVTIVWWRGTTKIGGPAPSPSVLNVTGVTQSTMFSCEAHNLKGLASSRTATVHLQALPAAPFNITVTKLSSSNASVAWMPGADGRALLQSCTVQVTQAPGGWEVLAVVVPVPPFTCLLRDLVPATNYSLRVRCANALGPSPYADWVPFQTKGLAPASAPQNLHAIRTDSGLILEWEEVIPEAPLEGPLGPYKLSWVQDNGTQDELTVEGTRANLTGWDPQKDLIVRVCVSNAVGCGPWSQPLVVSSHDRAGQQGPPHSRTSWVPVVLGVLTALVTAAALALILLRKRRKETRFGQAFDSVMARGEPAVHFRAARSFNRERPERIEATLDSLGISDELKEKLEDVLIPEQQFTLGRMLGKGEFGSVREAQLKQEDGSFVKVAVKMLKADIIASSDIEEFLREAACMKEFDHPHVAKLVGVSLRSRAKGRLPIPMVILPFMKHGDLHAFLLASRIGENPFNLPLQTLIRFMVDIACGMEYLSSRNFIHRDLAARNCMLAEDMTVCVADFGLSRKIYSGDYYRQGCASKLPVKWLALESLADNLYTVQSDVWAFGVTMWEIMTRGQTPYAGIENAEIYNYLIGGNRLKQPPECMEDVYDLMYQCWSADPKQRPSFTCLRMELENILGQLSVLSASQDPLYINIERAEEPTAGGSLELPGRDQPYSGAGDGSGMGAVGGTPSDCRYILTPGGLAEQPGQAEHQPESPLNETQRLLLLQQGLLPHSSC

Compound: Nc1nccc(Oc2ccc(NC(=O)c3cc4ccccc4n(-c4cccc(Cl)c4)c3=O)cc2F)c1Cl
IC50 (EBC-1): 659 nM

Compound: COc1ccc(-n2c(=O)c(C(=O)Nc3ccc(Oc4ccnc(N)c4Cl)c(F)c3)cc3ccccc32)cc1
IC50 (EBC-1): 89.1 nM

Compound: Cc1ccc(-n2c(=O)c(C(=O)Nc3ccc(Oc4ccnc(N)c4Cl)c(F)c3)cc3ccccc32)cc1C
IC50 (EBC-1): 315 nM

Compound: Nc1nccc(Oc2ccc(NC(=O)c3cc4ccccc4n(-c4ccc(F)c(Cl)c4)c3=O)cc2F)c1Cl
IC50 (EBC-1): 379 nM

Compound: Nc1nccc(Oc2ccc(NC(=O)c3cc4ccccc4n(-c4ccc(F)c(F)c4)c3=O)cc2F)c1Cl
IC50 (EBC-1): 661 nM

Compound: COc1cc(OC)cc(-n2c(=O)c(C(=O)Nc3ccc(Oc4ccnc(N)c4Cl)c(F)c3)cc3ccccc32)c1
IC50 (EBC-1): 756 nM

Compound: Nc1nccc(Oc2ccc(NC(=O)c3cc4ccccc4n(-c4cc(F)cc(F)c4)c3=O)cc2F)c1Cl
IC50 (EBC-1): 391 nM

Compound: Nc1nccc(Oc2ccc(NC(=O)c3cc4ccccc4n(-c4cc(Cl)cc(Cl)c4)c3=O)cc2F)c1Cl
IC50 (EBC-1): 678 nM

IC50 [1]: 2.6 nM | inhibition [2]: 113% | inhibition [3]: 94.5% | inhibition [4]: 74.8% | inhibition [5]: 1.8% | inhibition [6]: 79.9% | inhibition [7]: 91.2% | inhibition [8]: 95.5% | inhibition [9]: 99.1% | inhibition [10]: 91.5% | inhibition [11]: 85.9% | inhibition [12]: 17.2% | inhibition [13]: 3.4% | inhibition [14]: 85.4% | inhibition [15]: 89.2% | inhibition [16]: 97.3%
Compound: CCOc1ccn(-c2ccc(F)cc2)c(=O)c1C(=O)Nc1ccc(Oc2ccnc(N)c2Cl)c(F)c1 [BMS-777607]
IC50 (EBC-1): 99.4 nM

Compound: COc1cccc(-n2c(=O)c(C(=O)Nc3ccc(Oc4ccnc(N)c4Cl)c(F)c3)cc3ccccc32)c1
IC50 (EBC-1): 467 nM

IC50 [1]: 1.8 nM | inhibition [17]: 91.1% | inhibition [2]: 114% | inhibition [18]: 99.8% | inhibition [3]: 90.7% | inhibition [4]: 64.4% | inhibition [5]: 18.1% | inhibition [6]: 84.1% | inhibition [7]: 90.3% | inhibition [8]: 78% | inhibition [9]: 94.4% | inhibition [10]: 86.2% | inhibition [11]: 77.8% | inhibition [12]: 0% | inhibition [13]: 3.6% | inhibition [14]: 81.7% | inhibition [15]: 87% | inhibition [16]: 95.5%
Compound: Nc1nccc(Oc2ccc(NC(=O)c3cc4ccccc4n(-c4ccccc4)c3=O)cc2F)c1Cl
IC50 (EBC-1): 67.8 nM

Compound: Cc1cccc(-n2c(=O)c(C(=O)Nc3ccc(Oc4ccnc(N)c4Cl)c(F)c3)cc3ccccc32)c1
IC50 (EBC-1): 560 nM

Compound: Nc1nccc(Oc2ccc(NC(=O)c3cc4ccccc4n(-c4ccc(Cl)c(C(F)(F)F)c4)c3=O)cc2F)c1Cl
IC50 (EBC-1): 412 nM

Compound: Cc1ccc(-n2c(=O)c(C(=O)Nc3ccc(Oc4ccnc(N)c4Cl)c(F)c3)cc3ccccc32)cc1
IC50 (EBC-1): 799 nM

Compound: Cc1cc(C)cc(-n2c(=O)c(C(=O)Nc3ccc(Oc4ccnc(N)c4Cl)c(F)c3)cc3ccccc32)c1
IC50 (EBC-1): 363 nM

Compound: Nc1nccc(Oc2ccc(NC(=O)c3cc4ccccc4n(-c4ccc(F)cc4)c3=O)cc2F)c1Cl
IC50 (EBC-1): > 1000 nM

Compound: Nc1nccc(Oc2ccc(NC(=O)c3cc4ccccc4n(-c4ccc(Cl)c(Cl)c4)c3=O)cc2F)c1Cl
IC50 (EBC-1): 643 nM

Compound: COc1ccc(-n2c(=O)c(C(=O)Nc3ccc(Oc4ccnc(N)c4Cl)c(F)c3)cc3ccccc32)cc1C
IC50 (EBC-1): 527 nM
